The results in this text go back to patent US8178668B2, “2-aminopyridine kinase inhibitors” (OSI Pharmaceuticals, LLC, priority 2008, dated 2012).

As usually defined, the pIC50 is the IC50 on a negative log10 scale, so that one unit is a factor of ten. A higher pIC50 goes with a low IC50.

One assay deals with RON (human) (Homo sapiens, UniProt Q04912). The experiment in a line: RON kinase AlphaScreen assay (Km of ATP). The note with it: ATP at Km; at least duplicate experiments. The class given is biochemical. The essentials: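 Human RON phosphorylated biotinylated poly(Glu,Tyr) (200 ng/μL) at Km ATP in 50 mM HEPES pH 7.4, 12.5 mM MgCl2, 1% glycerol, 0.334 mM vanadate, 1% DMSO. Reaction ran 30 min at RT after enzyme addition. Product was detected by AlphaScreen with PT66 beads after 1 h.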
Background: In Alpha technology, singlet oxygen from a donor bead excites a nearby acceptor bead.

A further assay addresses MET (human) (Homo sapiens, UniProt P08581). Briefly: MET kinase AlphaScreen assay (Km of ATP). The conditions noted are these: ATP at Km; at least duplicate experiments. In kind it is biochemical. In short, it runs like this:
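Biotinylated poly(Glu,Tyr) (200 ng/μL) phosphorylated by MET with ATP at an enzyme-optimized level, in 50 mM HEPES pH 7.4 with Mg2+/Mn2+ and vanadate, 1% DMSO. Reaction runs 60 min at RT. PT66 AlphaScreen donor/acceptor beads are added and signal is read after 1 h.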

pIC50: −log10 of the molar value. Counter-ions that a name gives are not always drawn.

RON (human), sequence (Q04912 25-1400): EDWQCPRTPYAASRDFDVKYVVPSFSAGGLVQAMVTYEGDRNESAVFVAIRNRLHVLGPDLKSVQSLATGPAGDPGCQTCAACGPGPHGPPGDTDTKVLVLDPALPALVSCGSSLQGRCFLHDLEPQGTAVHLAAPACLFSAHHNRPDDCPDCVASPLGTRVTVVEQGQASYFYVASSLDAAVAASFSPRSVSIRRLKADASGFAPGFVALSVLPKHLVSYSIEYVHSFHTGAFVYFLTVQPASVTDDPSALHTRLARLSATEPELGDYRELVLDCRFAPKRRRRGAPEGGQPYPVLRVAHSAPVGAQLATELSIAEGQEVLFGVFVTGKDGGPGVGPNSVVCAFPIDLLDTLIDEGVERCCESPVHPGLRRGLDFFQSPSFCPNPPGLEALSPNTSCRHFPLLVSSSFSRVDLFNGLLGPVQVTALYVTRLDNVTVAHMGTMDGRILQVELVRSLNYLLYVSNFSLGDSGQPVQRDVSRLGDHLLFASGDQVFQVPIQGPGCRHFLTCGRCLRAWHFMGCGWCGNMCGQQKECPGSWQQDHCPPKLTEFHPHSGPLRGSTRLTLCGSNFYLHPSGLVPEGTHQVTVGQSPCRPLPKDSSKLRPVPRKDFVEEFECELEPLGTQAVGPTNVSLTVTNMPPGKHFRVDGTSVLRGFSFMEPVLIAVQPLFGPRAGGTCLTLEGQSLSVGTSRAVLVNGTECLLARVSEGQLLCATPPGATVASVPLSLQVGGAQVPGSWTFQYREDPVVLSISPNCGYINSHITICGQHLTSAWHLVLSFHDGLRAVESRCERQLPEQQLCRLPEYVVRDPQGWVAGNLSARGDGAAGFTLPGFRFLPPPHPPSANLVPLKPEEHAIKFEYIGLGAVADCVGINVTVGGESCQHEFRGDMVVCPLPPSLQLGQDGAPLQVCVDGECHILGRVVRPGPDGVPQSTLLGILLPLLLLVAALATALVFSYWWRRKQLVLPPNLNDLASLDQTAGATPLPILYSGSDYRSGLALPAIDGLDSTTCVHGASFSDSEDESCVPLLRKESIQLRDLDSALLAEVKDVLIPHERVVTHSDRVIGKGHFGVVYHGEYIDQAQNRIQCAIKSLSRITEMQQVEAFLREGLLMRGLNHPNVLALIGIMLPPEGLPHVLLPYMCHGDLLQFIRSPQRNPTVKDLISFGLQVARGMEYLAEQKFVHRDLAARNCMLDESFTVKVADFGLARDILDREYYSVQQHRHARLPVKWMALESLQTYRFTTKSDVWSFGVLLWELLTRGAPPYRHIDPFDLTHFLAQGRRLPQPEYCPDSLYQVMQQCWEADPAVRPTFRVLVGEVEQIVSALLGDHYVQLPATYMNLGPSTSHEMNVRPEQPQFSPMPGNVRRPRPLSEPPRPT
MET (human), sequence (P08581 25-1390): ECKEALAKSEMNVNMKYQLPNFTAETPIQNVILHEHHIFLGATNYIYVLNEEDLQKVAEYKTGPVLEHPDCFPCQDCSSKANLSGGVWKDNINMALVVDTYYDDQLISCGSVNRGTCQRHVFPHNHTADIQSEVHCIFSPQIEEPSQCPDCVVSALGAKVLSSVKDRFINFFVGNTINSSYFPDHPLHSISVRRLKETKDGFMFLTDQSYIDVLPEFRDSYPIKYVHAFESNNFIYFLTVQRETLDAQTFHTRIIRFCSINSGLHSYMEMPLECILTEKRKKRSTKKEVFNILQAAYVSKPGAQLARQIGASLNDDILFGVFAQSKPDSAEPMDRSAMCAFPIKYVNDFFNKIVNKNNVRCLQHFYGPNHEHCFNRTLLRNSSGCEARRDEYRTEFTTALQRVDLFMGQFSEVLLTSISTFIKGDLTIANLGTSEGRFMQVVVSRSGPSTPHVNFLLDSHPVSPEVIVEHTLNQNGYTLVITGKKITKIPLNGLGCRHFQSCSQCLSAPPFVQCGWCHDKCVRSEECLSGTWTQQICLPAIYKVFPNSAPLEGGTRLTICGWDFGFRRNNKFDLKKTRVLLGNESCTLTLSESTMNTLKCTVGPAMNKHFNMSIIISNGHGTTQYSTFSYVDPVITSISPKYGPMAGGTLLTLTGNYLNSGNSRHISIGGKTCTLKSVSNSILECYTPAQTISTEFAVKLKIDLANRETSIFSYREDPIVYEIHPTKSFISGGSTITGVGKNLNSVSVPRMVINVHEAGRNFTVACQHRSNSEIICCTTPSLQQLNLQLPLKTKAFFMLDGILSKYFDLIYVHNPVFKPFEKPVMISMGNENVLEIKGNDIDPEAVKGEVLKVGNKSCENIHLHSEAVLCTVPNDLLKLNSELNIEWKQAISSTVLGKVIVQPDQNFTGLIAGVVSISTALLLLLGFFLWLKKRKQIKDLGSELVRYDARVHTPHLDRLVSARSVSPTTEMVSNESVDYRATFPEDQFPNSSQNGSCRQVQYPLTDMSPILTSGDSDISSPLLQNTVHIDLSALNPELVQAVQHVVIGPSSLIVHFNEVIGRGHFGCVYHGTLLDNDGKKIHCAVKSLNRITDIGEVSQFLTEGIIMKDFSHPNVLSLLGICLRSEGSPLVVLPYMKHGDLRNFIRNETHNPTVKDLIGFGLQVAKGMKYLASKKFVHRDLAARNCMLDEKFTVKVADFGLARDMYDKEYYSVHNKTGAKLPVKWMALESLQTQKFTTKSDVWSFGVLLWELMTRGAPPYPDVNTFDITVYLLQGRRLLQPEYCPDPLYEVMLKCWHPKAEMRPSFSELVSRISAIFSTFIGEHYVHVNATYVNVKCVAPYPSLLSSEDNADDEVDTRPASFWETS

For the molecule `Nc1ncc(-c2cnn(C3CCN(CC(=O)N4CCC4)CC3)c2)cc1-c1nc2ccccc2s1` [Example 165, 2-{4-[4-(6-Amino-5-benzothiazol-2-ylpyridin-3-yl)-pyrazol-1-yl]-piperidin-1-yl}-1-azetidin-1-ylethanone], the pIC50 at RON (human) and against MET (human) was 6.00 to 7.00 in each case.
For `Nc1ncc(-c2cnn(C3CCN(CC(=O)N4CCCC4)CC3)c2)cc1-c1nc2ccccc2s1` [Example 166, 2-{4-[4-(6-Amino-5-benzothiazol-2-ylpyridin-3-yl)-pyrazol-1-yl]-piperidin-1-yl}-1-pyrrolidin-1-ylethanone], the pIC50 against RON (human) is 6.00 to 7.00; on MET (human), not below 7.00.
As to `Nc1ncc(-c2cnn(C3CCN(CC(=O)N4CCC(O)C4)CC3)c2)cc1-c1nc2ccccc2s1` (stereo not drawn) [Example 167, 2-{4-[4-(6-Amino-5-benzothiazol-2-ylpyridin-3-yl)-pyrazol-1-yl]-piperidin-1-yl}-1-(3-hydroxypyrrolidin-1-yl)ethanone], the pIC50 against RON (human) was 6.00 to 7.00; on MET (human) it was not below 7.00.
On to `Nc1ncc(-c2cnn(C3CCN(CC(=O)N4CCCCC4)CC3)c2)cc1-c1nc2ccccc2s1` [Example 168, 2-{4-[4-(6-Amino-5-benzothiazol-2-ylpyridin-3-yl)-pyrazol-1-yl]-piperidin-1-yl}-1-piperidin-1-ylethanone], for which the pIC50 against RON (human) and on MET (human) was 6.00 to 7.00 throughout.
In the case of `Nc1ncc(-c2cnn(C3CCN(CC(=O)N4CCC(O)CC4)CC3)c2)cc1-c1nc2ccccc2s1` [Example 169, 2-{4-[4-(6-Amino-5-benzothiazol-2-ylpyridin-3-yl)-pyrazol-1-yl]-piperidin-1-yl}-1-(4-hydroxypiperidin-1-yl)ethanone], the pIC50 was 6.00 to 7.00 against RON (human) and not below 7.00 on MET (human).
The corresponding values for `Nc1ncc(-c2cnn(C3CCN(CC(=O)N4CCOCC4)CC3)c2)cc1-c1nc2ccccc2s1` [Example 170, 2-{4-[4-(6-Amino-5-benzothiazol-2-ylpyridin-3-yl)-pyrazol-1-yl]-piperidin-1-yl}-1-morpholin-4-ylethanone] are 6.00 to 7.00 and not below 7.00.
The corresponding values for `Nc1ncc(-c2cnn(C3CCN(CC(=O)NCCO)CC3)c2)cc1-c1nc2ccccc2s1` [Example 171, 2-{4-[4-(6-Amino-5-benzothiazol-2-ylpyridin-3-yl)-pyrazol-1-yl]-piperidin-1-yl}-N-(2-hydroxyethyl)-acetamide] are 6.00 to 7.00 and not below 7.00.
The corresponding values for `COCCNC(=O)CN1CCC(n2cc(-c3cnc(N)c(-c4nc5ccccc5s4)c3)cn2)CC1` [Example 172, 2-{4-[4-(6-Amino-5-benzothiazol-2-ylpyridin-3-yl)-pyrazol-1-yl]-piperidin-1-yl}-N-(2-methoxyethyl)-acetamide] are 6.00 to 7.00 and 6.00 to 7.00.
Take `COCCN(CCOC)C(=O)CN1CCC(n2cc(-c3cnc(N)c(-c4nc5ccccc5s4)c3)cn2)CC1` [Example 173, 2-{4-[4-(6-Amino-5-benzothiazol-2-ylpyridin-3-yl)-pyrazol-1-yl]-piperidin-1-yl}-N,N-bis-(2-methoxyethyl)-acetamide]: the pIC50 on RON (human) and against MET (human) was 6.00 to 7.00 each time.
In the case of `Nc1ncc(-c2cnn([C@@H]3CN[C@@H](C(=O)O)C3)c2)cc1-c1nc2ccccc2s1` [Example 174, (2R,4S)-4-[4-(6-Amino-5-benzothiazol-2-ylpyridin-3-yl)-pyrazol-1-yl]-pyrrolidine-2-carboxylic acid], the pIC50 was 4.70 to 6.00 against RON (human) and not below 7.00 on MET (human).
Taken in the same sequence, the figures for `CN(C)C(=O)[C@H]1C[C@H](n2cc(-c3cnc(N)c(-c4nc5ccccc5s4)c3)cn2)CN1` [Example 175, (2R,4S)-4-[4-(6-Amino-5-benzothiazol-2-ylpyridin-3-yl)-pyrazol-1-yl]-pyrrolidine-2-carboxylic acid dimethylamide] were 6.00 to 7.00 and 6.00 to 7.00.
The corresponding values for `Nc1ncc(-c2cnn([C@@H]3CN[C@@H](C(=O)N4CCCC4)C3)c2)cc1-c1nc2ccccc2s1` [Example 176, {(2R,4S)-4-[4-(6-Amino-5-benzothiazol-2-ylpyridin-3-yl)-pyrazol-1-yl]-pyrrolidin-2-yl}-pyrrolidin-1-ylmethanone] are 6.00 to 7.00 and 6.00 to 7.00.
With `Nc1ncc(-c2cnn([C@@H]3CN[C@@H](C(=O)N4CCC(O)C4)C3)c2)cc1-c1nc2ccccc2s1` (stereo partly drawn) [Example 177, {(2R,4S)-4-[4-(6-Amino-5-benzothiazol-2-ylpyridin-3-yl)-pyrazol-1-yl]-pyrrolidin-2-yl}-(3-hydroxypyrrolidin-1-yl)methanone], the values for the pIC50 at RON (human) and on MET (human) were 6.00 to 7.00 and not below 7.00, respectively.
The corresponding values for `Nc1ncc(-c2cnn([C@@H]3CN[C@@H](C(=O)N4CCCCC4)C3)c2)cc1-c1nc2ccccc2s1` [Example 178, {(2R,4S)-4-[4-(6-Amino-5-benzothiazol-2-ylpyridin-3-yl)-pyrazol-1-yl]-pyrrolidin-2-yl}-piperidin-1-ylmethanone] are 6.00 to 7.00 and 6.00 to 7.00.
As to `Nc1ncc(-c2cnn([C@@H]3CN[C@@H](C(=O)N4CCOCC4)C3)c2)cc1-c1nc2ccccc2s1` [Example 179, {(2R,4S)-4-[4-(6-Amino-5-benzothiazol-2-ylpyridin-3-yl)-pyrazol-1-yl]-pyrrolidin-2-yl}-morpholin-4-ylmethanone], the pIC50 against RON (human) was 6.00 to 7.00; at MET (human), not below 7.00.
Taken in the same sequence, the figures for `Nc1ncc(-c2cnn(C3CNC3)c2)cc1-c1nc2ccccc2s1` [Example 181, 5-(1-Azetidin-3-yl-1H-pyrazol-4-yl)-3-benzothiazol-2-ylpyridin-2-ylamine trifluoroacetate] were 6.00 to 7.00 and not below 7.00.
As for `CN1CCN(C(=O)c2ccc(-c3cnc(N)c(-c4nc5ccccc5s4)c3)cc2)CC1` [Example 182, [4-(6-Amino-5-benzothiazol-2-ylpyridin-3-yl)phenyl]-(4-methylpiperazin-1-yl)methanone], the values for the pIC50 against RON (human) and on MET (human) were 4.70 to 6.00 and 6.00 to 7.00, respectively.
For `CN(C)C(=O)c1ccc(-c2cnc(N)c(-c3nc4ccccc4s3)c2)cc1` [Example 183, 4-(6-Amino-5-benzothiazol-2-ylpyridin-3-yl)-N,N-dimethylbenzamide], the pIC50 at RON (human) and at MET (human) was 4.70 to 6.00 in each case.
Take `CN1CCN(C(=O)c2cccc(-c3cnc(N)c(-c4nc5ccccc5s4)c3)c2)CC1` [Example 184, [3-(6-Amino-5-benzothiazol-2-ylpyridin-3-yl)phenyl]-(4-methylpiperazin-1-yl)methanone]: the negative-log IC50 (pIC50) at RON (human) and against MET (human) was 4.70 to 6.00 throughout.
Regarding `CN(C)CCNC(=O)c1ccc(-c2cnc(N)c(-c3nc4ccccc4s3)c2)cc1` [Example 185, 4-(6-Amino-5-benzothiazol-2-ylpyridin-3-yl)-N-(2-dimethylaminoethyl)benzamide], the results for the pIC50 against RON (human) and on MET (human) were 4.70 to 6.00 and 6.00 to 7.00, respectively.
The corresponding values for `CN(C)C(=O)c1cccc(-c2cnc(N)c(-c3nc4ccccc4s3)c2)c1` [Example 186, 3-(6-Amino-5-benzothiazol-2-ylpyridin-3-yl)-N,N-dimethylbenzamide] are less than 4.70 and 4.70 to 6.00.
The corresponding values for `CN(C)CCNC(=O)c1cccc(-c2cnc(N)c(-c3nc4ccccc4s3)c2)c1` [Example 187, 3-(6-Amino-5-benzothiazol-2-ylpyridin-3-yl)-N-(2-dimethylaminoethyl)benzamide] are 4.70 to 6.00 and 4.70 to 6.00.
Consider `CN(C)CCCOc1ccc(-c2cnc(N)c(-c3nc4ccccc4s3)c2)cn1` [Example 188, 5-Benzothiazol-2-yl-6′-(3-dimethylaminopropoxy)-[3,3′]bipyridinyl-6-ylamine], for which the pIC50 against RON (human) and at MET (human) was 4.70 to 6.00 each time.
For the molecule `Nc1ncc(-c2ccc(C(=O)N3CCOCC3)cc2)cc1-c1nc2ccccc2s1` [Example 189, [4-(6-Amino-5-benzothiazol-2-ylpyridin-3-yl)phenyl]morpholin-4-ylmethanone], the pIC50 at RON (human) and against MET (human) was 4.70 to 6.00 throughout.
`NC(=O)c1ccc(-c2cnc(N)c(-c3nc4ccccc4s3)c2)cc1` [Example 190, 4-(6-Amino-5-benzothiazol-2-ylpyridin-3-yl)benzamide]: the results for the pIC50 at RON (human) and at MET (human) were less than 4.70 and 4.70 to 6.00, respectively.
Regarding `CCN(CC)C(=O)c1ccc(-c2cnc(N)c(-c3nc4ccccc4s3)c2)cc1` [Example 191, 4-(6-Amino-5-benzothiazol-2-ylpyridin-3-yl)-N,N-diethylbenzamide], the pIC50 against RON (human) and on MET (human) was less than 4.70 in each case.
Consider `Nc1ncc(-c2cccc(C(=O)NCc3ccco3)c2)cc1-c1nc2ccccc2s1` [Example 192, 3-(6-Amino-5-benzothiazol-2-ylpyridin-3-yl)-N-furan-2-ylmethylbenzamide], for which the pIC50 against RON (human) and against MET (human) was 4.70 to 6.00 each time.
For the molecule `Nc1ncc(-c2ccc(C(=O)NCc3ccco3)cc2)cc1-c1nc2ccccc2s1` [Example 193, 4-(6-Amino-5-benzothiazol-2-ylpyridin-3-yl)-N-furan-2-ylmethylbenzamide], the pIC50 against RON (human) and on MET (human) was 4.70 to 6.00 each time.
As for `CNC(=O)c1cccc(-c2cnc(N)c(-c3nc4ccccc4s3)c2)c1` [Example 194, 3-(6-Amino-5-benzothiazol-2-ylpyridin-3-yl)-N-methylbenzamide], the pIC50 on RON (human) and at MET (human) was less than 4.70 in each case.
Take `Nc1ncc(-c2ccc(C(=O)N3CCCCC3)cc2)cc1-c1nc2ccccc2s1` [Example 195, [4-(6-Amino-5-benzothiazol-2-ylpyridin-3-yl)phenyl]piperidin-1-ylmethanone]: the pIC50 on RON (human) and against MET (human) was less than 4.70 throughout.
